Data as given in patent US20150315241A1, “Antibiotic Peptides” (priority 2007, published 2015).
≈ marks a conversion by molar mass, not a printed value. Where a SMILES comes first, the peptide text is derived from it. Where no end group is shown, it is not given here. [ ]: non-standard residue; d: D form. The star is where a group is joined. Orn(α-tetramethylguanidino) = CN(C)C(=N[C@@H](CCCN)C(=O)*)N(C)C; hArg = N=C(N)NCCCC[C@H](N)C(=O)O

Experiments:
[1] = test system: S. enterica subsp. Enterica serovar. typhi G10215 ATCC 700408; assay type: cell-based, Salmonella enterica; settings: ATCC 700408, 20 h
Outline: (§1)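 Growth is measured at 595 nm after the bacteria, set to 5×10^6 CFU/mL in 1% TSB, sit with two-fold dilutions of peptide for 20 hrs at 37° C. Final peptide spans 125 μg/mL to 60 ng/mL.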

K. Pneumonia 123132 = assay: Growth inhibition assay (MIC); assay type: cell-based, Klebsiella pneumoniae; settings: multidrug resistant strain; 1% TSB, 37° C., 20 hrs
Outline: as §1

[2] = test system: K. Pneumonia K6, ATCC 700603; assay: Growth inhibition assay (MIC); assay type: cell-based, Klebsiella pneumoniae; settings: multidrug resistant strain; 1% TSB, 37° C., 20 hrs
Outline: as §1

E. coli 1103 = assay type: cell-based, Escherichia coli; settings: 1103, 20 h
Description: (§2) The minimal inhibition concentrations (MIC) of the apidaecin-derived peptides and peptide-derivatives were determined by a growth inhibition assay using a serial peptide dilution in sterilized round-bottom 96-well plates (polystyrene, U-bottom, Greiner Bio-One GmbH) with a final volume of 100 μL per well. The bacteria, e.g., E. coli BL21 A1, were grown in nutrient broth (NB, Carl Roth GmbH+Co. KG, Karlsruhe, Germany) at 37° C. over night. To each well of the 96-well plate, 50 μL of the overnight culture adjusted to 5×10^6 CFU/mL in 1% TSB were added. Lyophilized peptides and peptidomimetics were dissolved in 1% TSB (tryptic soy broth) or water to give a final concentration of 250 μg/mL. Fifty μL of the peptide or peptidomimetics solution were added to the first well of a row on the plate and mixed. Fifty μL of the first well containing the peptide solution were transferred to the second well, mixed and again 50 μL transferred to the next well and so on. Thereby, a two-fold dilution series was obtained starting at 250 μg/mL in the first well down to 120 ng/mL in the 12th well of a row giving a final peptide or peptidomimetics concentration from 125 μg/mL (well 1) to 60 ng/mL (well 12). Plates were incubated at 37° C. for 20 hrs. The absorbance was measured at 595 nm using a TECAN micro plate spectrophotometer (Tecan, Germany). All peptides and peptidomimetics were measured in triplicates. Sterilized water was used as a negative control.
(§3) The bacteria strains were tested: • Eschericha coli 1103, 10233, BL 21 AI, DC 2, • Klebsiella pneumoniae 681, • Micrococcus luteus ATCC 10240, • Mycobacterium vaccae • Bactillus subtillis 347.

in vitro = in vitro ADME, mouse; settings: 25% aqueous mouse serum, 37° C.; read-out: Half-life time
Description: Serum stability studies were carried out in duplicate as described by Hoffmann et al.. Briefly, 28 μL of an aqueous peptide or peptidomimetics solution (0.5 mg/mL) was added to 0.2 mL freshly pooled 25% mouse serum (Sigma-Aldrich GmbH, Taufkirchen, Germany) in water. The mixtures were incubated at 37° C. under gentle stirring. The proteins were precipitated with 40 μL of 15% aqueous TCA after incubation times of 0, 0.5, 1, 2, 4 and 6 h at 0° C. for 20 min before centrifuged (13500×G) at 4° C. for 5 min. The supernatants of all samples (240 μL) were neutralized with 1 mol/L aqueous NaOH and immediately stored at −20° C. The supernatants were analyzed by RP-HPLC using a linear acetonitrile gradient as described above with 0.1% TFA as ion pair reagent. Collected fractions of the main peaks were further analyzed by tandem mass spectrometry (MALDI-TOF/TOF-MS, 4700 Proteomics Analyzer, Applied Biosystems GmbH, Weiterstadt, Germany) in positive ion reflector mode using α-cyanohydroxycinnamic acid (50% CH3CN in 0.1% aqueous TFA) as matrix to identify the degradation products of the peptides and peptidomimetics, i.e., metabolites, at the different time points. Serum control samples consisted of 200 μL of pooled 25% mouse serum in water, which were also precipitated with 40 μL 15% aqueous TCA, as described before. Peptide reference samples consisted of 28 μL of the peptide stock solution diluted in 0.2 mL water and 40 μL of 15% aqueous trichloroacetic acid (TCA).

K. pneumonia 681 = assay type: cell-based, Klebsiella pneumoniae; settings: 20 h
Description: as §2, §3

S. typhi S5 = assay type: cell-based, Salmonella typhi; settings: S5, 20 h
Description: as §2
(§4) The following multidrug resistant bacteria strains were tested: • Eschericha coli 45849 and D31, • Klebsiella pneumoniae 123132 and K6, • Salmonella typhi S5 and Salmonella enterica subsp. enterica serovar Typhimurium (ATCC 700408), • Rhizobium radiobacter (ATCC 15955 deposited as Agrobacterium tumefaciens).

E. coli BL 21 AI = assay: Growth inhibition assay (MIC); assay type: cell-based, Escherichia coli; settings: 1% TSB, 37° C., 20 hrs
Outline: (§5)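 Bacteria grown overnight in NB at 37° C. were adjusted to 5×10^6 CFU/mL in 1% TSB and mixed 1:1 with a two-fold peptide series (final 125 μg/mL–60 ng/mL). After 20 hrs at 37° C., A595 was read; triplicates.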

M. luteus ATCC 10240 = assay type: cell-based, Micrococcus luteus; settings: ATCC 10240, 20 h
Outline: as §5

B. subtilis 347 = assay type: cell-based, Bactillus subtillis; settings: 347, 20 h
Description: as §2, §3

E. coli 45849 = assay: Growth inhibition assay (MIC); assay type: cell-based, Escherichia coli; settings: multidrug resistant strain; 1% TSB, 37° C., 20 hrs
Description: as §2, §4

E. coli D31 = assay type: cell-based, Escherichia coli; settings: D31, 20 h
Outline: as §1

CC[C@H](C)[C@H](NC(=O)[C@H](Cc1ccc(O)cc1)NC(=O)[C@@H](NC(=O)[C@@H]1CCCN1C(=O)[C@H](CCCNC(=N)N)NC(=O)[C@H](CC(N)=O)NC(=O)[C@H](CC(N)=O)NC(=O)[C@H](CCCN)N=C(N(C)C)N(C)C)C(C)C)C(=O)N1CCC[C@H]1C(=O)N[C@@H](CCCNC(=N)N)C(=O)N1CCC[C@H]1C(=O)N[C@@H](CCCNC(=N)N)C(=O)N1CCC[C@H]1C(=O)N1CCC[C@H]1C(=O)N[C@@H](Cc1c[nH]cn1)C(=O)N1CCC[C@H]1C(=O)N[C@@H](CCCCNC(=N)N)C(=O)N[C@@H](CC(C)C)C(N)=O [compound 155] ({Orn(α-tetramethylguanidino)}-NNRPVYIPRPRPPHP[hArg]L-NH2)
MIC S. enterica subsp. Enterica serovar. typhi G10215 ATCC 700408 [1]: 0.5 mg/L (≈ 0.217 µM) | MIC K. Pneumonia 123132 (K. Pneumonia 123132): 2 mg/L (≈ 0.868 µM) | MIC K. Pneumonia K6, ATCC 700603 [2]: 4 mg/L (≈ 1.74 µM) | MIC E. coli 1103 (E. coli 1103): 4 mg/L (≈ 1.74 µM) | half-life (in vitro): > 6 h | MIC K. pneumonia 681 (K. pneumonia 681): 4 mg/L (≈ 1.74 µM) | MIC S. typhi S5 (S. typhi S5): 4 mg/L (≈ 1.74 µM) | MIC E. coli BL 21 AI (E. coli BL 21 AI): 4 mg/L (≈ 1.74 µM) | MIC M. luteus ATCC 10240 (M. luteus ATCC 10240): 1 mg/L (≈ 0.434 µM) | MIC B. subtilis 347 (B. subtilis 347): 32 mg/L (≈ 13.9 µM) | MIC E. coli 45849 (E. coli 45849): 4 mg/L (≈ 1.74 µM) | MIC E. coli D31 (E. coli D31): 4 mg/L (≈ 1.74 µM)

GNNRPVYIPQPRPPHPRI [compound 1]
half-life at 0.061 mg/mL (in vitro): 2 h

GNNRPVYIPQPRPPHPRI-NH2 [compound 4]
half-life at 0.061 mg/mL (in vitro): 0.25 h

GNNRPVYIPQPRPPHPRL [compound 2]
half-life at 0.061 mg/mL (in vitro): 2 h

GNNRPVYIPQPRPPHPRL-NH2 [compound 6]
MIC S. enterica subsp. Enterica serovar. typhi G10215 ATCC 700408 [1]: 0.125 mg/L | MIC K. Pneumonia 123132 (K. Pneumonia 123132): 16 mg/L | MIC K. Pneumonia K6, ATCC 700603 [2]: 16 mg/L | half-life at 0.061 mg/mL (in vitro): 0.25 h | MIC S. typhi S5 (S. typhi S5): 0.125 mg/L | MIC E. coli 45849 (E. coli 45849): 0.5 mg/L | MIC E. coli D31 (E. coli D31): 1 mg/L

GNNRPVYIPQPRPPHPRPIRV-NH2 [compound 110]
half-life at 0.061 mg/mL (in vitro): 6 h
